This note sets out measurements from PubChem BioAssay (NCI).

The structures appear in SMILES notation.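 Step 1: Grow cells in 96-well plates. Step 2: Expose to compound for 48 hours at 5 concentrations. Step 3: Interpolate endpoints linearly; if unreached, use highest concentration. At the TGI there is no net growth.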

For one test, the system named is HCC-2998 colon. Description: NCI anticancer screen, dose series, 48 h.
`Cn1c(=O)c(Br)c(C=O)n(CCO[N+](=O)[O-])c1=O` returned a TGI of 32 µM.
In the case of `C/C(CC(=O)Nc1ccc([N+](=O)[O-])cc1)=N\NC(N)=O`, the TGI is > 100 µM.
Still for that read-out and setting: in the case of `CCCCOC(=O)C1C2CCC(O2)C1C(=O)OCCCC` (stereo not drawn) it was > 100 µM; in that of `CN(C)CCCSc1nc2ccccc2[nH]1`, > 100 µM.

A further test deals with SF-295 CNS. Description: NCI anticancer screen, dose series, 48 h.
For the molecule `O=C1/C(=C/c2cccc(Br)c2)CCc2ccccc21`, the TGI came to 28.5 µM.
The molecule `Cc1ccc(S(=O)(=O)n2cc(-c3cc(C(F)(F)F)ccn3)c3cc(Br)ccc32)cc1` came in with a TGI of 67.7 µM.
Same read-out and setting: then `CN(CCCCCl)P(=O)(OCc1ccc([N+](=O)[O-])o1)OC[C@H]1O[C@@H](n2cc(F)c(=O)[nH]c2=O)C[C@@H]1O` (stereo partly drawn), with 3.48 µM; and `CC1C2(C)OC(=N)C(C#N)(C(c3ccccc3)O2)C1(C#N)C#N` (stereo not drawn), with > 100 µM; and `O=C1NC2ON=C(c3ccccc3)C2C2ON=C(c3ccccc3)N12` (stereo not drawn), with > 100 µM.
For `COC(=O)C1(C(=O)OC)Cc2ccc(OC)cc2C2=C1C(=O)c1ccccc1C2=O`, the TGI was found to be 8.44 µM.
`COCCOC(=O)c1c(C)n([O-])c2cc(Cl)c(Cl)cc2[n+]1=O`: the TGI worked out at 84.2 µM.
The same measure, in the same setting: then `COc1ccc2[nH]cc(CCNC(=O)[C@H](Cc3ccccc3)NC(=O)[C@@H](NCC(F)(F)F)C(C)C)c2c1`, with 25.2 µM; and `COc1ccc(Nc2nnc(-c3nsc4ccccc34)s2)cc1`, with > 100 µM.
In turn, `C=CCNC1=C2C[C@@H](C)C[C@@H](OC)[C@H](OC(=O)CCN)[C@H](C)/C=C(\C)[C@@H](OC(N)=O)[C@H](OC)/C=C\C=C(/C)C(=O)NC(=CC1=O)C2=O` returned a TGI of 14.1 µM.
For `C1=NCCN2CCN(CCN=Cc3ccc(cc3)OCc3cccc(n3)COc3ccc1cc3)CC2`, the TGI was > 50 µM.
Same read-out and setting: in the case of `C(=C\c1cccs1)/c1cccc(/C=C/c2cccs2)n1` it was > 100 µM.
The same measure, in the same setting: in the case of `CC(CCN)(CCN)[N+](=O)[O-]` it was > 100 µM; in that of `C/C(CC(=O)Nc1ccc([N+](=O)[O-])cc1)=N\NC(N)=O`, > 100 µM.
As for `CCOC(=O)c1cccn1S(=O)(=O)c1cc(Cl)ccc1NC(=O)CC`, the TGI was > 100 µM.
With `CCCCOC(=O)C1C2CCC(O2)C1C(=O)OCCCC` (stereo not drawn), the TGI was > 100 µM.
Same read-out and setting: in the case of `C=CCN1C(=O)C=C(c2ccccc2)n2ncc3cccc1c32` it was > 100 µM.
In the case of `O=C([O-])C[n+]1ccccc1`, the TGI was > 100 µM.
On to `CSc1nc(C#N)c(/N=C\N(C)C)n1C`, for which the TGI was > 100 µM.
Take `CN(C)CCCSc1nc2ccccc2[nH]1`: the TGI is > 100 µM.

A further test has as its system UO-31 renal. Description: NCI anticancer screen, dose series, 48 h.
Molecule `O=C1/C(=C/c2cccc(Br)c2)CCc2ccccc21` yielded a TGI of 26.7 µM.
Still for that read-out and setting: in the case of `Cc1ccc(S(=O)(=O)n2cc(-c3cc(C(F)(F)F)ccn3)c3cc(Br)ccc32)cc1` it was 24.7 µM; in that of `CN(CCCCCl)P(=O)(OCc1ccc([N+](=O)[O-])o1)OC[C@H]1O[C@@H](n2cc(F)c(=O)[nH]c2=O)C[C@@H]1O` (stereo partly drawn), > 100 µM; in that of `CC1C2(C)OC(=N)C(C#N)(C(c3ccccc3)O2)C1(C#N)C#N` (stereo not drawn), > 100 µM.
On the same count and under the same terms, then `O=C1NC2ON=C(c3ccccc3)C2C2ON=C(c3ccccc3)N12` (stereo not drawn), with > 100 µM; and `COC(=O)C1(C(=O)OC)Cc2ccc(OC)cc2C2=C1C(=O)c1ccccc1C2=O`, with 18.6 µM; and `COCCOC(=O)c1c(C)n([O-])c2cc(Cl)c(Cl)cc2[n+]1=O`, with 10.5 µM.
The molecule `COc1ccc2[nH]cc(CCNC(=O)[C@H](Cc3ccccc3)NC(=O)[C@@H](NCC(F)(F)F)C(C)C)c2c1` displayed a TGI of 68.3 µM.
Take `COc1ccc(Nc2nnc(-c3nsc4ccccc34)s2)cc1`: the TGI was determined as 35 µM.
Consider `C=CCNC1=C2C[C@@H](C)C[C@@H](OC)[C@H](OC(=O)CCN)[C@H](C)/C=C(\C)[C@@H](OC(N)=O)[C@H](OC)/C=C\C=C(/C)C(=O)NC(=CC1=O)C2=O`, for which the TGI was determined as 24.2 µM.
On the same count and under the same terms, then `C1=NCCN2CCN(CCN=Cc3ccc(cc3)OCc3cccc(n3)COc3ccc1cc3)CC2`, with > 50 µM; and `C(=C\c1cccs1)/c1cccc(/C=C/c2cccs2)n1`, with > 100 µM; and `CC(CCN)(CCN)[N+](=O)[O-]`, with > 100 µM.
On to `C/C(CC(=O)Nc1ccc([N+](=O)[O-])cc1)=N\NC(N)=O`, for which the TGI was > 100 µM.
On the same count and under the same terms, in the case of `CCOC(=O)c1cccn1S(=O)(=O)c1cc(Cl)ccc1NC(=O)CC` it was 54 µM.
Still for that read-out and setting: then `CCCCOC(=O)C1C2CCC(O2)C1C(=O)OCCCC` (stereo not drawn), with > 100 µM; and `C=CCN1C(=O)C=C(c2ccccc2)n2ncc3cccc1c32`, with > 100 µM; and `O=C([O-])C[n+]1ccccc1`, with > 100 µM.
For `CSc1nc(C#N)c(/N=C\N(C)C)n1C`, the TGI is > 100 µM.
Same read-out and setting: in the case of `CN(C)CCCSc1nc2ccccc2[nH]1` it was > 100 µM.

For another test, the system named is HS 578T breast. Description: NCI anticancer screen, dose series, 48 h.
On to `O=C1/C(=C/c2cccc(Br)c2)CCc2ccccc21`, for which the TGI was found to be 24.8 µM.
On the same count and under the same terms, in the case of `Cc1ccc(S(=O)(=O)n2cc(-c3cc(C(F)(F)F)ccn3)c3cc(Br)ccc32)cc1` it was 41.3 µM; in that of `CN(CCCCCl)P(=O)(OCc1ccc([N+](=O)[O-])o1)OC[C@H]1O[C@@H](n2cc(F)c(=O)[nH]c2=O)C[C@@H]1O` (stereo partly drawn), 8.68 µM; in that of `CC1C2(C)OC(=N)C(C#N)(C(c3ccccc3)O2)C1(C#N)C#N` (stereo not drawn), 78.6 µM.
On the same count and under the same terms, then `O=C1NC2ON=C(c3ccccc3)C2C2ON=C(c3ccccc3)N12` (stereo not drawn), with > 100 µM.
As for `COC(=O)C1(C(=O)OC)Cc2ccc(OC)cc2C2=C1C(=O)c1ccccc1C2=O`, the TGI worked out at 50.4 µM.
On the same count and under the same terms, in the case of `COCCOC(=O)c1c(C)n([O-])c2cc(Cl)c(Cl)cc2[n+]1=O` it was > 100 µM; in that of `COc1ccc2[nH]cc(CCNC(=O)[C@H](Cc3ccccc3)NC(=O)[C@@H](NCC(F)(F)F)C(C)C)c2c1`, 39.6 µM; in that of `COc1ccc(Nc2nnc(-c3nsc4ccccc34)s2)cc1`, > 100 µM.
The same measure, in the same setting: in the case of `C=CCNC1=C2C[C@@H](C)C[C@@H](OC)[C@H](OC(=O)CCN)[C@H](C)/C=C(\C)[C@@H](OC(N)=O)[C@H](OC)/C=C\C=C(/C)C(=O)NC(=CC1=O)C2=O` it was 52.9 µM; in that of `C1=NCCN2CCN(CCN=Cc3ccc(cc3)OCc3cccc(n3)COc3ccc1cc3)CC2`, > 50 µM; in that of `CC(CCN)(CCN)[N+](=O)[O-]`, > 100 µM.
For the molecule `Cn1c(=O)c(Br)c(C=O)n(CCO[N+](=O)[O-])c1=O`, the TGI was > 100 µM.
On the same count and under the same terms, in the case of `CCOC(=O)c1cccn1S(=O)(=O)c1cc(Cl)ccc1NC(=O)CC` it was > 100 µM; in that of `C=CCN1C(=O)C=C(c2ccccc2)n2ncc3cccc1c32`, > 100 µM; in that of `O=C([O-])C[n+]1ccccc1`, > 100 µM.
With `CSc1nc(C#N)c(/N=C\N(C)C)n1C`, the TGI is > 100 µM.
Same read-out and setting: in the case of `CN(C)CCCSc1nc2ccccc2[nH]1` it was > 100 µM.

A further test concerns RPMI-8226 leukemia. Description: NCI anticancer screen, dose series, 48 h.
As for `Cc1ccc(S(=O)(=O)n2cc(-c3cc(C(F)(F)F)ccn3)c3cc(Br)ccc32)cc1`, the TGI is > 100 µM.
On the same count and under the same terms, in the case of `CN(CCCCCl)P(=O)(OCc1ccc([N+](=O)[O-])o1)OC[C@H]1O[C@@H](n2cc(F)c(=O)[nH]c2=O)C[C@@H]1O` (stereo partly drawn) it was 38.4 µM; in that of `COCCOC(=O)c1c(C)n([O-])c2cc(Cl)c(Cl)cc2[n+]1=O`, 18.8 µM; in that of `COc1ccc2[nH]cc(CCNC(=O)[C@H](Cc3ccccc3)NC(=O)[C@@H](NCC(F)(F)F)C(C)C)c2c1`, 23.8 µM.
Same read-out and setting: then `COc1ccc(Nc2nnc(-c3nsc4ccccc34)s2)cc1`, with > 100 µM.
`C=CCNC1=C2C[C@@H](C)C[C@@H](OC)[C@H](OC(=O)CCN)[C@H](C)/C=C(\C)[C@@H](OC(N)=O)[C@H](OC)/C=C\C=C(/C)C(=O)NC(=CC1=O)C2=O` had a TGI of 32.5 µM.
